The nature of data set [1]: Inhibition of binding to p85 Phosphatidylinositol 3-kinase C-terminal SH2 domain.
Data set [2] is described as follows: Ionization constant (pKa2) by treating potentiometric titration data according to the method Noyes. Format: physicochemical. The following applies: read-out: pKa2.
The target of data set [3] is T1, Tyrosine-protein phosphatase non-receptor type 1 (Homo sapiens, UniProt P18031).
T1 sequence (P18031 whole entry): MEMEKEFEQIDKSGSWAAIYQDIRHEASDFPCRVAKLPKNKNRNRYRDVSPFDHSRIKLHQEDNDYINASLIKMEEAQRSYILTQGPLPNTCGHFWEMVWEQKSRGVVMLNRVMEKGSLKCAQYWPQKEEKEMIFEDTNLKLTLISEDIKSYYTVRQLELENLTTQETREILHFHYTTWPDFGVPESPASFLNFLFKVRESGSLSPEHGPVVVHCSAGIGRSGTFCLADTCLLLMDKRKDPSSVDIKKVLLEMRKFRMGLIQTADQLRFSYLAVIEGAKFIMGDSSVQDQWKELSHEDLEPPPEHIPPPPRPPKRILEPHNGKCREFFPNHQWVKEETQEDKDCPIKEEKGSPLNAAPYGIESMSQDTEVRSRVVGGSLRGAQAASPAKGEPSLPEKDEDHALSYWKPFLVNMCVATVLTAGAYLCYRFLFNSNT
As to the kind of experiment: Inhibitory activity against Protein-tyrosine phosphatase 1B-mediated dephosphorylation of phosphorylated insulin receptor using (CHO) cell line transfected with an expression plasmid encoding the normal human insulin receptor [CHO/HIRc].

Where a SMILES comes first, the peptide text is derived from it. The star is where a group is joined. X2 = O=C(O)C(F)(C(=O)O)*; X1 = O=C(O)C(C(=O)O)*

Compound `CSCC[C@H](NC(=O)[C@@H]1CCCN1C(=O)[C@@H](NC(=O)[C@H](Cc1ccc(OC(C(=O)O)C(=O)O)cc1)NC(=O)[C@H](CC(=O)O)NC(C)=O)C(C)C)C(=O)N[C@@H](CC(C)C)C(N)=O` (Ac-DY(X1)VPML-NH2) showed an IC50 in data set [1] of 14 µM. The compound `CSCC[C@H](NC(=O)[C@@H]1CCCN1C(=O)[C@@H](NC(=O)[C@H](Cc1ccc(OC(F)(C(=O)O)C(=O)O)cc1)NC(=O)[C@H](CC(=O)O)NC(C)=O)C(C)C)C(=O)N[C@@H](CC(C)C)C(N)=O` (Ac-DY(X2)VPML-NH2) gave an IC50 in data set [1] of 18 µM.

Consider `O=C(O)C(F)(Oc1ccc2cc(Br)ccc2c1)C(=O)O`, for which the pKa in data set [2] worked out at 2.84. Same read-out and setting: the same measure for `O=C(O)C(Oc1ccc2cc(Br)ccc2c1)C(=O)O`: 3.91. As to `CC(=O)N[C@@H](CC(=O)O)C(=O)N[C@@H](C)C(=O)N[C@@H](CC(=O)O)C(=O)N[C@@H](CCC(=O)O)C(=O)N[C@@H](Cc1ccc(OC(C(=O)O)C(=O)O)cc1)C(=O)N[C@@H](CC(C)C)C(N)=O` (Ac-DADEY(X1)L-NH2), in data set [3], the IC50 amounted to 10 µM. The same measure, in the same setting: the same measure for `CC(=O)N[C@@H](CC(=O)O)C(=O)N[C@@H](C)C(=O)N[C@@H](CC(=O)O)C(=O)N[C@@H](CCC(=O)O)C(=O)N[C@@H](Cc1ccc(OC(F)(C(=O)O)C(=O)O)cc1)C(=O)N[C@@H](CC(C)C)C(N)=O` (Ac-DADEY(X2)L-NH2): 1 µM.
